The source made the active and inactive calls. No rule for the calls is given here.

The data set deals with CCRIS mutagenicity, Ames/micronucleus/aberration tests. Description: CCRIS mutagenicity studies.
Where [1] appears, read: Test System: AMES SALMONELLA TYPHIMURIUM, Strain/Indicator: TA98, Metabolic Activation: NONE, Method: STANDARD PLATE.
Setting [2] is: Test System: AMES SALMONELLA TYPHIMURIUM, Strain/Indicator: TA100, Metabolic Activation: NONE, Method: STANDARD PLATE.
Setting [3] is: Test System: AMES SALMONELLA TYPHIMURIUM, Strain/Indicator: TA98, Metabolic Activation: NONE, Method: PREINCUBATION
Where [4] appears, read: Test System: AMES SALMONELLA TYPHIMURIUM, Strain/Indicator: TA100, Metabolic Activation: NONE, Method: PREINCUBATION

In the case of `O=C(Nc1cc(Cl)cc(Cl)c1O)c1c(O)c(Cl)cc(Cl)c1Cl`, the mutagenic call by setting is: under setting [1], “inactive; negative”; (Test System: AMES SALMONELLA TYPHIMURIUM, Strain/Indicator: TA98, Metabolic Activation: RAT, LIVER, S-9, KANECHLOR 400, Method: STANDARD PLATE) “inactive; negative”; under setting [2], “inactive; negative”; (Test System: AMES SALMONELLA TYPHIMURIUM, Strain/Indicator: TA100, Metabolic Activation: RAT, LIVER, S-9, KANECHLOR 400, Method: STANDARD PLATE) “inactive; negative”; (Test System: AMES SALMONELLA TYPHIMURIUM, Strain/Indicator: TA1535, Metabolic Activation: NONE, Method: STANDARD PLATE) “inactive; negative”; (Test System: AMES SALMONELLA TYPHIMURIUM, Strain/Indicator: TA1535, Metabolic Activation: RAT, LIVER, S-9, KANECHLOR 400, Method: STANDARD PLATE) “inactive; negative”. Also, the mutagenic call by setting is: (Test System: AMES SALMONELLA TYPHIMURIUM, Strain/Indicator: TA1537, Metabolic Activation: NONE, Method: STANDARD PLATE) “inactive; negative”; (Test System: AMES SALMONELLA TYPHIMURIUM, Strain/Indicator: TA1537, Metabolic Activation: RAT, LIVER, S-9, KANECHLOR 400, Method: STANDARD PLATE) “inactive; negative”; (Test System: AMES SALMONELLA TYPHIMURIUM, Strain/Indicator: TA1538, Metabolic Activation: NONE, Method: STANDARD PLATE) “inactive; negative”; (Test System: AMES SALMONELLA TYPHIMURIUM, Strain/Indicator: TA1538, Metabolic Activation: RAT, LIVER, S-9, KANECHLOR 400, Method: STANDARD PLATE) “inactive; negative”.

In the case of `CC(C)(C)c1cc(-c2ccccc2)ccc1N=O`, the mutagenic call is, setting by setting: under setting [1], “active; positive”; (Test System: AMES SALMONELLA TYPHIMURIUM, Strain/Indicator: TA98, Metabolic Activation: S-9, Method: STANDARD PLATE) “active; positive”; under setting [2], “active; positive”; (Test System: AMES SALMONELLA TYPHIMURIUM, Strain/Indicator: TA100, Metabolic Activation: S-9, Method: STANDARD PLATE) “active; positive”.

Take `O=C(Cl)CCc1ccccc1`: the mutagenic call reads like this: under setting [3], “active; positive”; (Test System: AMES SALMONELLA TYPHIMURIUM, Strain/Indicator: TA98, Metabolic Activation: RAT LIVER S-9, PCB, Method: PREINCUBATION) “active; positive”; under setting [4], “active; positive”; (Test System: AMES SALMONELLA TYPHIMURIUM, Strain/Indicator: TA100, Metabolic Activation: RAT LIVER S-9, PCB, Method: PREINCUBATION) “active; positive”; (Test System: AMES SALMONELLA TYPHIMURIUM, Strain/Indicator: TA104, Metabolic Activation: NONE, Method: PREINCUBATION) “active; positive”; (Test System: AMES SALMONELLA TYPHIMURIUM, Strain/Indicator: TA104, Metabolic Activation: RAT LIVER S-9, PCB, Method: PREINCUBATION) “active; positive”. For the same compound, the mutagenic call (Test System: E.COLI, Strain/Indicator: WP2 UVRA, Metabolic Activation: NONE, Method: PREINCUBATION) was “inactive; negative” and the mutagenic call (Test System: E.COLI, Strain/Indicator: WP2 UVRA, Metabolic Activation: RAT LIVER S-9, PCB, Method: PREINCUBATION) was “active; positive”.

Turning to `Nc1cccc(N)n1`, the mutagenic call under setting [3] was “inactive; negative”; the mutagenic call (Test System: AMES SALMONELLA TYPHIMURIUM, Strain/Indicator: TA98, Metabolic Activation: RAT, LIVER, S-9, PCB, Method: PREINCUBATION) is “active; positive”; the mutagenic call (Test System: AMES SALMONELLA TYPHIMURIUM, Strain/Indicator: TA98, Metabolic Activation: RAT, LIVER, S-9, PHENOBARBITAL AND BETA-NAPHTHOFLAVONE, Method: PREINCUBATION) was “inactive; negative”; the mutagenic call under setting [4] is “inactive; negative”; the mutagenic call (Test System: AMES SALMONELLA TYPHIMURIUM, Strain/Indicator: TA100, Metabolic Activation: RAT, LIVER, S-9, PCB, Method: PREINCUBATION) was “inactive; negative”; the mutagenic call (Test System: AMES SALMONELLA TYPHIMURIUM, Strain/Indicator: TA100, Metabolic Activation: RAT, LIVER, S-9, PHENOBARBITAL AND BETA-NAPHTHOFLAVONE, Method: PREINCUBATION) was “inactive; negative”. For the same compound, the mutagenic call was “inactive; negative” (Test System: AMES SALMONELLA TYPHIMURIUM, Strain/Indicator: TA1535, Metabolic Activation: NONE, Method: PREINCUBATION); “inactive; negative” (Test System: AMES SALMONELLA TYPHIMURIUM, Strain/Indicator: TA1535, Metabolic Activation: RAT, LIVER, S-9, PHENOBARBITAL AND BETA-NAPHTHOFLAVONE, Method: PREINCUBATION); “active; positive” (Test System: AMES SALMONELLA TYPHIMURIUM, Strain/Indicator: TA1537, Metabolic Activation: RAT, LIVER, S-9, PHENOBARBITAL AND BETA-NAPHTHOFLAVONE, Method: PREINCUBATION); “inactive; negative” (Test System: E. COLI, Strain/Indicator: WP2UVRA, Metabolic Activation: NONE, Method: PREINCUBATION); “inactive; negative” (Test System: E. COLI, Strain/Indicator: WP2UVRA, Metabolic Activation: RAT, LIVER, S-9, PHENOBARBITAL AND BETA-NAPHTHOFLAVONE, Method: PREINCUBATION).

For `Nc1c(O)cccc1C(=O)O`, the mutagenic call under setting [4] was “inactive; negative”.

The values above are taken from PubChem BioAssay AID1259407 (Chemical Carcinogenesis Research Information System (CCRIS), 2018).
